Measured values as given in patent publication US9949485B2, “Use of acylsulfonamides for improving plant yield” (BAYER CROPSCIENCE AG, priority 2013, dated 2018).

Key:
[1] = system: Triticum aestivum variety “AC Harvest”; assay: Growth chamber trial, post-emergence spray application, grain yield at full maturity; format: in vivo; conditions: single active ingredient, dose rate 10 g ai/ha; for change in vivo at 10 g/ha / response vs control in vivo at 10 g/ha: Triticum aestivum, post-emergence; for change in vivo at 10 g/ha: grain yield difference, read-out: Difference (%) vs. UTC; for response vs control in vivo at 10 g/ha: grain yield relative to UTC (100.0); for Grain Yield, g/plant: spray at BBCH 56-61, slightly reduced water, average of five replicates
[2] = system: Triiticum aestivum seeds (TRZAS); assay: Seed treatment trial, grain yield; format: in vivo, Triticum aestivum; conditions: for Difference (%) vs. UTC: grain yield difference; for Relative, %: grain yield relative to UTC (100.0)
[3] = single active ingredient, 1 g ai/kg seed

COC(=O)N(OC)c1ccccc1COc1ccn(-c2ccc(Cl)cc2)n1 [Pyraclostrobin (F-57), pyraclostrobin] gave a change in vivo at 10 g/ha [1] of 17% and a response vs control in vivo at 10 g/ha [1] of 117%.

CNC(=O)Nc1ccc(S(=O)(=O)NC(=O)c2ccccc2OC)cc1 [Compound (A1), N-(2-methoxybenzoyl)-4-[(methylaminocarbonyl)amino]benzenesulfonamide] was tested, and the change in vivo at 10 g/ha [1] was 12.3%, the response vs control in vivo at 10 g/ha [1] was 112% and the “Grain Yield, g/plant” value [1] was 1.19 g/plant. For the same compound, the “Grain Yield, g/plant” value ([2]; dose rate 0.5 g ai/kg seed) was 1.90 g/plant, the “Difference (%) vs. UTC” value ([2]; 0.5 g ai/kg seed) was “+5.6%” and the “Difference (%) vs. UTC” value [2, 3] was “+3.9%”. For the same compound, the “Relative, %” value ([2]; 0.5 g ai/kg seed) was 105.6%, the “Relative, %” value [2, 3] was 103.9% and the “Grain Yield, g/plant” value ([2]; single active ingredient, dose rate 1 g ai/kg seed) was 1.87 g/plant.

With CN1COCN(Cc2cnc(Cl)s2)/C1=N\[N+](=O)[O-] [Thiamethoxam (I-19), thiamethoxam] the change in vivo at 10 g/ha [1] was 22.6%, the response vs control in vivo at 10 g/ha [1] was 123% and the “Grain Yield, g/plant” value [1] was 1.30 g/plant.

Work on O=[N+]([O-])NC1=NCCN1Cc1ccc(Cl)nc1 [Imidacloprid (I-11), imidacloprid] yielded a change in vivo at 10 g/ha [1] of 7.5% and a response vs control in vivo at 10 g/ha [1] of 108%.

CN/C(=N\[N+](=O)[O-])NCc1cnc(Cl)s1 [Clothianidin (I-3), clothianidin] gave a change in vivo at 10 g/ha [1] of 12.3% and a response vs control in vivo at 10 g/ha [1] of 112%.

OC(Cc1ccccc1Cl)(Cn1nc[nH]c1=S)C1(Cl)CC1 (centres unmarked) [Prothioconazole (F-124), prothioconazole] gave a change in vivo at 10 g/ha [1] of -3.8% and a response vs control in vivo at 10 g/ha [1] of 96.2%.

For CON=C(C(=O)OC)c1ccccc1CON=C(C)c1cccc(C(F)(F)F)c1 [Trifloxystrobin (F-60), trifloxystrobin], the change in vivo at 10 g/ha [1] was 5.7% and the response vs control in vivo at 10 g/ha [1] was 106%.

CC1COC(Cn2cncn2)(c2ccc(Oc3ccc(Cl)cc3)cc2Cl)O1 (centres unmarked) [Difenoconazole (F-105), difenoconazole] showed a change in vivo at 10 g/ha [1] of -3.8% and a response vs control in vivo at 10 g/ha [1] of 96.2%.

With N#Cc1nn(-c2c(Cl)cc(C(F)(F)F)cc2Cl)c(N)c1[S+]([O-])C(F)(F)F (centres unmarked) [Fipronil (I-8), fipronil] the change in vivo at 10 g/ha [1] was 12.3% and the response vs control in vivo at 10 g/ha [1] was 112%.
